Reference: patent US7973069B2 (PTC Therapeutics, Inc., priority 2004, dated 2011)
“And” between values parts separate entries of the source, which are not always exact repeats. Equal values may be shown once.

Tested on: HCV replicon
Format: cell-based
Conditions: not given

| Structure (SMILES) | IC50 |
| --- | --- |
| CC(C)OC(=O)Nc1ccc(-c2c(C#N)c3ccc(OCCF)cc3n2C2CCC2)cc1 [Compound 1174] | < 0.5 µM |
| CCCCNC(=O)Nc1ccc(-c2c(C#N)c3cc(OC)ccc3n2C2CCC2)cc1 [Compound 1164] | < 0.5 µM and > 2 µM |
| N#Cc1c(-c2ccc(NC(=O)OC3CCC3)cc2)n(C2CCC2)c2cc(OCC3CCCO3)ccc12 (centres unmarked) [Compound 1282] | < 0.5 µM |
| CC(C)OC(=O)Nc1ccc(-c2c(C#N)c3ccc(OCC4CCCO4)cc3n2C2CCC2)cc1 (centres unmarked) [Compound 1285] | < 0.5 µM |
| CCCOC(=O)Nc1ccc(-c2c(C#N)c3ccc(OC(F)(F)F)cc3n2CC)cc1 [Compound 889] | 0.5 to 2 µM |
| CC(C)OC(=O)Nc1ccc(-c2c(C#N)c3ccc(OCc4ccccn4)cc3n2C2CCC2)cc1 [Compound 1220] | < 0.5 µM |
| CCCCOC(=O)Nc1cccc(-c2c(C#N)c3ccc(OCCCN4CCOCC4)cc3n2CC)c1 [Compound 1042] | 0.5 to 2 µM |
| CCn1c(-c2cccc(NC(=O)Oc3ccc(OC)cc3)c2)c(C#N)c2ccc(OCCCCl)cc21 [Compound 1028] | < 0.5 µM |
| CCOc1ccc2c(C#N)c(-c3ccc(NC(=O)CCc4ccccc4)cc3)n(CC)c2c1 [Compound 901] | 0.5 to 2 µM |
| CCCOc1ccc2c(C#N)c(-c3ccc(NC(=O)OC(C)C)cc3)n(C(C)C)c2c1 [Compound 1204] | < 0.5 µM |
| CCCCn1c(-c2cccc(NC(=O)OCC)c2)c(C#N)c2ccc(OCC)cc21 [Compound 1020] | < 0.5 µM and 0.5 to 2 µM |
| CCCS(=O)(=O)Nc1ccc(-c2c(C#N)c3ccc(OC)cc3n2C2CC2)cc1 [Compound 1235] | 0.5 to 2 µM |
| CCOc1ccc2c(C#N)c(-c3ccc(NC(=O)NC4CCCC4)cc3)n(C3CCCC3)c2c1 [Compound 1214] | < 0.5 µM |
| COCCN(C)CCOc1ccc2c(C#N)c(-c3ccc(NC(=O)NC(C)C)cc3)n(C3CCC3)c2c1 [Compound 1321] | 0.5 to 2 µM |
| CC(OC(=O)Nc1ccc(-c2c(C#N)c3ccc(OCC4CCCO4)cc3n2C2CCC2)cc1)C1CC1 (centres unmarked) [Compound 1281] | < 0.5 µM |
| CCn1c(-c2ccc(NC(=O)OCC(C)C)cc2)c(C#N)c2ccc(OC(F)F)cc21 [Compound 1134] | 0.5 to 2 µM |
| CCOC(=O)Nc1ccc(-c2c(C#N)c3ccc(OC(F)(F)F)cc3n2CC)cc1 [Compound 887] | 0.5 to 2 µM |
| CCCOC(=O)N(CC)c1ccc(-c2c(C#N)c3ccc(OCC)cc3n2C2CCC2)cc1 [Compound 1252] | 0.5 to 2 µM |
| CCOC(=O)Nc1ccc(-c2c(C#N)c3ccc(OCCCCl)cc3n2CC)cc1 [Compound 1031] | < 0.5 µM |
| CC(C)OC(=O)Nc1ccc(-c2c(C#N)c3ccc(Oc4ncccn4)cc3n2C2CCC2)cc1 [Compound 2151] | < 0.5 µM |

| Structure (SMILES) | IC50 |
| --- | --- |
| CCn1c(-c2ccc(NS(=O)(=O)C3CC3)cc2)c(C#N)c2ccc(OC(F)F)cc21 [Compound 929] | < 0.5 µM |
| CCn1c(-c2ccc(N3CCCS3(=O)=O)cc2)c(C#N)c2ccc(Oc3cnccn3)cc21 [Compound 1053] | 0.5 to 2 µM |
| CCOc1ccc2c(C#N)c(-c3ccc(NC(=O)OC4(C)CCCC4)cc3)n(C3CCC3)c2c1 [Compound 1209] | < 0.5 µM |
| CCCn1c(-c2ccc(NC(=O)NC(C)CC)cc2)c(C#N)c2ccc(OC)cc21 (centres unmarked) [Compound 1119] | 0.5 to 2 µM |
| CCC(C)NC(=O)Nc1ccc(-c2c(C#N)c3ccc(OC(F)F)cc3n2CC2CC2)cc1 (centres unmarked) [Compound 1266] | 0.5 to 2 µM |
| CCn1c(-c2ccc(NS(=O)(=O)C(C)C)cc2)c(C#N)c2ccc(OC(F)(F)F)cc21 [Compound 884] | < 0.5 µM |
| CCCCn1c(-c2cccc(NC(=O)OCCC)c2)c(C#N)c2ccc(OCC)cc21 [Compound 1022] | < 0.5 µM and > 2 µM |
| CCn1c(-c2ccc(NC(=O)NCCCl)cc2)c(C#N)c2ccc(OCCCN3CCOCC3)cc21 [Compound 1126] | 0.5 to 2 µM |
| CCN(c1ccc(-c2c(C#N)c3ccc(C(F)(F)F)cc3n2CC)cc1)S(C)(=O)=O [Compound 1003] | 0.5 to 2 µM |
| CCn1c(-c2ccc(NS(=O)(=O)CC)cc2)c(C#N)c2ccc(OCCCN3CCOCC3)cc21 [Compound 1115] | 0.5 to 2 µM |
| CCOc1ccc2c(C#N)c(-c3ccc(NC(=O)OCCN4CCOCC4)cc3)n(C3CCC3)c2c1 [Compound 1192] | 0.5 to 2 µM |
| CCCn1c(-c2cccc(N)c2)c(C#N)c2cc(OCc3ccccc3)ccc21 [Compound 866] | 0.5 to 2 µM |
| CCOc1ccc2c(C#N)c(-c3ccc(NC(=O)NC(C)C)cc3)n(C3CCC3)c2c1 [Compound 1080] | < 0.5 µM |
| CCn1c(-c2ccc(N(C)S(=O)(=O)CC)cc2)c(C#N)c2ccc(C(F)(F)F)cc21 [Compound 1005] | 0.5 to 2 µM |
| CCS(=O)(=O)Nc1ccc(-c2c(C#N)c3cc(OC)ccc3n2C2CCC2)cc1 [Compound 1161] | < 0.5 µM and 0.5 to 2 µM |
| CCCNC(=O)Nc1ccc(-c2c(C#N)c3ccc(OCCF)cc3n2CC)cc1 [Compound 955] | 0.5 to 2 µM and < 0.5 µM |
| COCCN(C)CCOc1ccc2c(C#N)c(-c3ccc(NC(=O)OC(C)C)cc3)n(C3CCC3)c2c1 [Compound 1274] | < 0.5 µM |
| CCn1c(-c2ccc(NC(=O)OCCF)cc2)c(C#N)c2ccc(OCCCN3CCOCC3)cc21 [Compound 1113] | 0.5 to 2 µM |
| CCOc1ccc2c(C#N)c(-c3ccc(NC(=O)O[C@H](C)C4CC4)cc3)n(C3CCC3)c2c1 [Compound 2174] | < 0.5 µM |

Tested on: not given
Conditions: not given

| Structure (SMILES) | melting point |
| --- | --- |
| C[C@@H](OC(=O)Nc1ccc(-c2c(C#N)c3ccc(Oc4ncccn4)cc3n2C2CCC2)cc1)C1CC1 [Compound 2210, (R)-{4-[3-cyano-1-cyclobutyl-6-(pyrimidin-2-yloxy)-1H-indol-2-yl]-phenyl}carbamic acid 1-cyclopropyl-ethyl ester] | 194 to 196 °C |
| C[C@@H](OC(=O)Nc1ccc(-c2c(C#N)c3ccc(Oc4ncccn4)cc3n2C2CC2)cc1)C1CC1 [Compound 2217, (R)-{4-[3-cyano-1-cyclopropyl-6-(pyrimidin-2-yloxy)-1H-indol-2-yl]-phenyl}-carbamic acid 1-cyclopropylethyl ester] | 154 to 156 °C |
| C[C@@H](OC(=O)Nc1ccc(-c2c(C#N)c3ccc(-c4ccccn4)cc3n2C2CCC2)cc1)C1CC1 [Compound 2417, [4-(3-cyano-1-cyclobutyl-6-pyridin-2-yl-1H-indol-2-yl)-phenyl]-carbamic acid 1-cyclopropyl-ethyl ester] | 118 to 120 °C |
| C[C@@H](OC(=O)Nc1ccc(-c2c(C#N)c3ccc(-c4ncccn4)cc3n2C2CCC2)cc1)C1CC1 [Compound 2419, [4-(3-cyano-1-cyclobutyl-6-pyrimidin-2-yl-1H-indol-2-yl)-phenyl]-carbamic acid 1-cyclopropyl-ethyl ester] | 212 to 214 °C |
| CC(C)OC(=O)Nc1ccc(-c2c(C#N)c3ccc(Oc4ncccn4)cc3n2C2CCC2)cc1Cl [Compound 2339, {2-chloro-4-[3-cyano-1-cyclobutyl-6-(pyrimidin-2-yloxy)-1H-indol-2-yl]-phenyl}-carbamic acid isopropyl ester] | 165 to 165.5 °C |
| CCCS(=O)(=O)Nc1ccc(-c2c(C#N)c3ccc(OC(F)F)cc3n2CC)cc1 [Compound 928, Propane-1-sulfonic acid [4-(3-cyano-6-difluoromethoxy-1-ethyl-1H-indoel-2-yl)-phenyl]-amide] | 206 to 208 °C |
| CC(C)Nc1ccc(-c2c(C#N)c3ccc(Oc4ncccn4)cc3n2C2CC2)cc1 [Compound 2434, 1-cyclopropyl-2-(4-isopropylamino-phenyl)-6-(pyrimidin-2-yloxy)-1H-indole-3-carbonitrile] | 215 to 217 °C |
| CC(C)NS(=O)(=O)Nc1ccc(-c2c(C#N)c3ccc(Oc4ncccn4)cc3n2C2CCC2)cc1 [Compound 2263] | 223 to 224 °C |

Tested on: wild-type poliovirus
Format: cell-based
Conditions: 1 μM compound; HeLa cells infected with wild-type poliovirus at MOI 0.1, treated one day; CPE score

| Structure (SMILES) | WT-PV CPE (1 μM)* |
| --- | --- |
| CCn1cc(C#N)c2ccc(OC(C)C)cc21 [Compound 10] | 2 |
| CCn1c(-c2ccc(OC)cc2)c(C#N)c2ccc(OC)cc21 [Compound 19] | 1 |
| COc1ccc(-n2cc(C#N)c3ccc(OC)cc32)cc1 [Compound 4] | 1 |
| COc1ccc2c(C#N)c(C)n(-c3ccc4c(c3)OCO4)c2c1 [Compound 24] | 2 |

Same assay, conditions: 10 μM compound; HeLa cells infected with wild-type poliovirus at MOI 0.1, treated one day; CPE score

| Structure (SMILES) | WT-PV CPE (10 μM)* |
| --- | --- |
| CCn1cc(C#N)c2ccc(OC(C)C)cc21 [Compound 10] | 2 |
| CCn1c(-c2ccc(OC)cc2)c(C#N)c2ccc(OC)cc21 [Compound 19] | 2 |
| COc1ccc(-n2cc(C#N)c3ccc(OC)cc32)cc1 [Compound 4] | 2 |
| COc1ccc2c(C#N)c(C)n(-c3ccc4c(c3)OCO4)c2c1 [Compound 24] | 2 |

Same assay, conditions: 100 μM compound; HeLa cells infected with wild-type poliovirus at MOI 0.1, treated one day; CPE score

| Structure (SMILES) | WT-PV CPE (100 μM)* |
| --- | --- |
| CCn1cc(C#N)c2ccc(OC(C)C)cc21 [Compound 10] | 3 |
| CCn1c(-c2ccc(OC)cc2)c(C#N)c2ccc(OC)cc21 [Compound 19] | 3 |
| COc1ccc(-n2cc(C#N)c3ccc(OC)cc32)cc1 [Compound 4] | 3 |
| COc1ccc2c(C#N)c(C)n(-c3ccc4c(c3)OCO4)c2c1 [Compound 24] | 3 |
